{"source": "paper PMC12394658", "about": "“Discovery of Zharp1-163 as a dual inhibitor of ferroptosis and necroptosis for the treatment of inflammatory disorders and kidney injury” (Cell Death Discovery, 2025)", "assay_in_all_cases": "biochemical", "set-up_in_all_cases": "Kinase selectivity panel of 81 human kinases, ADP-Glo or HTRF, per cent inhibition at 1 uM", "key": {"CDK1/CycE1": {"biological_target": "CDK1/CycE1 (Homo sapiens, UniProt P06493)", "sequence (P06493 whole entry)": "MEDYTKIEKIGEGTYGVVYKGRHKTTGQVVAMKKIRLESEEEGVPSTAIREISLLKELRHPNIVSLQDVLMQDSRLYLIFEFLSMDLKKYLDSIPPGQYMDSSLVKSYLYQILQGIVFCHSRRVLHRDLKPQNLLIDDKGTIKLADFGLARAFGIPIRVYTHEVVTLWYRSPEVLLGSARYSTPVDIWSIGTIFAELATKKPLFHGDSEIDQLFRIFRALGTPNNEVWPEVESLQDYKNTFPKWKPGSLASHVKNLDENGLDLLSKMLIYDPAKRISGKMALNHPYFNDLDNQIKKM", "sequence (P24864 whole entry partner)": "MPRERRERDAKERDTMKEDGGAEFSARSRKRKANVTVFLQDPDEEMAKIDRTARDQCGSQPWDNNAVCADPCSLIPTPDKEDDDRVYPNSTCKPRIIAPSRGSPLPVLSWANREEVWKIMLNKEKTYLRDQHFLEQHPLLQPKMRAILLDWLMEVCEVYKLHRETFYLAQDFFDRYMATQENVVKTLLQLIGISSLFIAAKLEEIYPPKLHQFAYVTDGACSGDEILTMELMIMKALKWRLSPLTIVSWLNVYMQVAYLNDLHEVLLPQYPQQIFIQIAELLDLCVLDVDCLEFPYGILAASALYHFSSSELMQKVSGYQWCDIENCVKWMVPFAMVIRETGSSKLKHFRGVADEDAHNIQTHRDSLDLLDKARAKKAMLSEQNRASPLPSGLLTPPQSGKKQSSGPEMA", "procedure,_shortened": "(§1)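 Kinase-panel selectivity profiling of 81 kinases with compound at 1000 nM.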"}, "CDK5/p35NCK": {"biological_target": "T1, CDK5/p35NCK (Homo sapiens, UniProt Q00535)", "T1 construct": "p35NCK", "T1 sequence (Q00535 whole entry)": "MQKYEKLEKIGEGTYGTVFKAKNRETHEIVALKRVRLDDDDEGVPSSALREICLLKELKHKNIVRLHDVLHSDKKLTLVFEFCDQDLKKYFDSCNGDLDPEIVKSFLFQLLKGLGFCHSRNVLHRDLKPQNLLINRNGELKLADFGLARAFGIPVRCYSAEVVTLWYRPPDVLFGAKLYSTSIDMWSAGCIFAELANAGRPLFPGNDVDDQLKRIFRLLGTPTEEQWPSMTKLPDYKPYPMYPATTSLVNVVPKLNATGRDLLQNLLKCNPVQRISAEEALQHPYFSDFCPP", "T1 sequence (Q15078 whole entry partner)": "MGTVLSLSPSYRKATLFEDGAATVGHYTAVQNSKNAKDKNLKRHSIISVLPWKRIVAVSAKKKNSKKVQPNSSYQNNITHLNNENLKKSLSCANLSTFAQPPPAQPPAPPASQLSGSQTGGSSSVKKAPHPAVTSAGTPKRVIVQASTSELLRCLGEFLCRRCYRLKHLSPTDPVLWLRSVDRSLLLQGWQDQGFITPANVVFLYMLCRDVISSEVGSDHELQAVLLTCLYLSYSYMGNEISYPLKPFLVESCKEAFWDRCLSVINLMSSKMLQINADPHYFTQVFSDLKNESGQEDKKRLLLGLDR", "procedure,_shortened": "as §1"}, "CK1γ3": {"biological_target": "T2, CK1γ3 (Homo sapiens, UniProt Q9Y6M4)", "T2 construct": "gene CSNK1G3", "T2 sequence (Q9Y6M4 whole entry)": "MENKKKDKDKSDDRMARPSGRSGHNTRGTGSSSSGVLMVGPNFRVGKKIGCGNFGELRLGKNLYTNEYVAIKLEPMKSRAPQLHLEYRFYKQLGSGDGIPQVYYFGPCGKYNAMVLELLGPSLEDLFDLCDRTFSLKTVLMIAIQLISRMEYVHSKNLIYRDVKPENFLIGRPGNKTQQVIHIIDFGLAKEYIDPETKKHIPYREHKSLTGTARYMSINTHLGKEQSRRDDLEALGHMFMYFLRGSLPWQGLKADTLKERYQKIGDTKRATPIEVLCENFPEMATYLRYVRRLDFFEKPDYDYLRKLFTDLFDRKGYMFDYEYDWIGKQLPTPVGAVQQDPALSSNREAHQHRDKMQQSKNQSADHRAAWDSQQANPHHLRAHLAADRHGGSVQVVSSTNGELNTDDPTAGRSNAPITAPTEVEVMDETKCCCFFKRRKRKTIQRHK", "procedure,_shortened": "as §1"}, "DAPK1": {"biological_target": "DAPK1 (Homo sapiens, UniProt P53355)", "procedure,_shortened": "as §1"}, "HIPK1": {"biological_target": "HIPK1 (Homo sapiens, UniProt Q86Z02)", "procedure,_shortened": "as §1"}, "JAK3": {"biological_target": "JAK3 (Homo sapiens, UniProt P52333)", "sequence (P52333 whole entry)": "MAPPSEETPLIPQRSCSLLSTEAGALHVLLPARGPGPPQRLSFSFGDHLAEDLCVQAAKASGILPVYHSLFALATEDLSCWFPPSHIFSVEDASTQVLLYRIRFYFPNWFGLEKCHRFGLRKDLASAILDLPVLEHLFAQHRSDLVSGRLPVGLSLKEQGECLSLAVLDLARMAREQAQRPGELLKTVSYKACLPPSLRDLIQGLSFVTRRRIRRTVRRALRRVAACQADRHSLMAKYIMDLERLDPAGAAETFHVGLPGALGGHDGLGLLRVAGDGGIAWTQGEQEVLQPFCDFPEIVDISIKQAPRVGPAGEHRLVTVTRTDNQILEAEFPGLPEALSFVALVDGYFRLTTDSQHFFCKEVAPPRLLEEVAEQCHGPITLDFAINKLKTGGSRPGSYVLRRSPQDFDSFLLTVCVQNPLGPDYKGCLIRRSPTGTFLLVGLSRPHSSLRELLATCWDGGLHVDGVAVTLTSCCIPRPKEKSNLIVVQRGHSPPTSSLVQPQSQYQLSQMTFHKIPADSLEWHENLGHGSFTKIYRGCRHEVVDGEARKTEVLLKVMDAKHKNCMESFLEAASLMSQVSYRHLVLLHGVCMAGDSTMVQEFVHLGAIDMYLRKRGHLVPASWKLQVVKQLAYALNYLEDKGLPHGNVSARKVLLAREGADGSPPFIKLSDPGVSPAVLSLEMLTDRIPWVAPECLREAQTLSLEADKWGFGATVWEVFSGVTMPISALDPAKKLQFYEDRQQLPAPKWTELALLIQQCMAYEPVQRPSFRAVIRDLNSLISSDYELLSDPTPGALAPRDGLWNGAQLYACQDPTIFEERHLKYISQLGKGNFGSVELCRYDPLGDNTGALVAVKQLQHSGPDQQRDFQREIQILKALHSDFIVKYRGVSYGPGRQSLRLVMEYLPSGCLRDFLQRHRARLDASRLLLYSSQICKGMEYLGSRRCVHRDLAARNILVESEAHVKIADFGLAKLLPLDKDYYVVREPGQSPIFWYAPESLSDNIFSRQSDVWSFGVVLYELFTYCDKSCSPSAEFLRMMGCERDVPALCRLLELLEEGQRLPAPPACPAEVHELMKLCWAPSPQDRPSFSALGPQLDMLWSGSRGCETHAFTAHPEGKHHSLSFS", "procedure,_shortened": "as §1"}, "LCK": {"biological_target": "LCK (Homo sapiens, UniProt P06239)", "sequence (P06239 whole entry)": "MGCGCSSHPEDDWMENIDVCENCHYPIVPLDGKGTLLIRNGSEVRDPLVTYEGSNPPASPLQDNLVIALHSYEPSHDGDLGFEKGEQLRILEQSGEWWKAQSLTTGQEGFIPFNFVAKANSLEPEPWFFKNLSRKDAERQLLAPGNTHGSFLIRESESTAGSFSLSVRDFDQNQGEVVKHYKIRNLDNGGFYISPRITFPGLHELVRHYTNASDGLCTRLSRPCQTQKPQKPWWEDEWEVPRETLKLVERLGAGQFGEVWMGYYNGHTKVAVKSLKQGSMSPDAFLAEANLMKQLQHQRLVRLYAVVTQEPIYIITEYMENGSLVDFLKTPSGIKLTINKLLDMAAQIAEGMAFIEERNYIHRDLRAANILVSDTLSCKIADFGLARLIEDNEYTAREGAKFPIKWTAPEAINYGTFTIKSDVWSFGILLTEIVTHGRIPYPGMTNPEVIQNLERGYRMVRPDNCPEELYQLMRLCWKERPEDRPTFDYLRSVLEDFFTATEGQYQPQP", "procedure,_shortened": "as §1"}, "MAP2K1": {"biological_target": "MAP2K1 (Homo sapiens, UniProt Q02750)", "procedure,_shortened": "as §1"}, "MLK1": {"biological_target": "T3, MLK1 (Homo sapiens, UniProt P80192)", "T3 construct": "gene MAP3K9", "procedure,_shortened": "as §1"}, "PIM1": {"biological_target": "PIM1 (Homo sapiens, UniProt P11309)", "sequence (P11309 whole entry)": "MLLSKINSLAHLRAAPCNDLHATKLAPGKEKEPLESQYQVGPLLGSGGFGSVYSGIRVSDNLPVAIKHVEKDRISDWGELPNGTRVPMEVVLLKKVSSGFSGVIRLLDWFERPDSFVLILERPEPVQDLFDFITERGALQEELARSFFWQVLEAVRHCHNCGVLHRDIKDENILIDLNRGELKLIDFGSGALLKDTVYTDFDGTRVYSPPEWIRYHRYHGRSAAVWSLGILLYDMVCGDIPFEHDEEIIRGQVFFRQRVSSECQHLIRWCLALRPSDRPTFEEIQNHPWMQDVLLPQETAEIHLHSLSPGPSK", "procedure,_shortened": "as §1"}, "SGK": {"biological_target": "T4, SGK (Homo sapiens, UniProt O00141)", "T4 construct": "gene SGK1", "procedure,_shortened": "as §1"}, "TGFβR2": {"biological_target": "T5, TGFβR2 (Homo sapiens, UniProt P37173)", "T5 construct": "gene TGFBR2", "T5 sequence (P37173 whole entry)": "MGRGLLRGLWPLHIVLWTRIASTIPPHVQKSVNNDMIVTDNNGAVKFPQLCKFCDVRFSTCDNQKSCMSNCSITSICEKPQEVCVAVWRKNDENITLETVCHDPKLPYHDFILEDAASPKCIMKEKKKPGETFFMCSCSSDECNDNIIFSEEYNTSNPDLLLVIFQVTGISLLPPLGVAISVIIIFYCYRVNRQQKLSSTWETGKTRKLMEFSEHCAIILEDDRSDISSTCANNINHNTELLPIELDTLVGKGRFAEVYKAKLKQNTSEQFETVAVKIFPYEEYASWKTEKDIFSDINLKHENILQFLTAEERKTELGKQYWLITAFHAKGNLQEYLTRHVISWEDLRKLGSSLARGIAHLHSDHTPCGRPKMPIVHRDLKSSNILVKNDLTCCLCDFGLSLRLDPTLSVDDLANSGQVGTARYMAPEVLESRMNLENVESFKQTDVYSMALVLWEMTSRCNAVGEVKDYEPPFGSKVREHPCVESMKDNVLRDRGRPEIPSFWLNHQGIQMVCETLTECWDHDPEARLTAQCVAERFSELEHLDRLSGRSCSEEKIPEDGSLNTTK", "procedure,_shortened": "as §1"}, "TSSK1": {"biological_target": "T6, TSSK1 (Homo sapiens, UniProt Q9BXA7)", "T6 construct": "gene TSSK1B", "procedure,_shortened": "as §1"}, "p38α": {"biological_target": "T7, p38α (Homo sapiens, UniProt Q16539)", "T7 construct": "gene MAPK14", "T7 sequence (Q16539 whole entry)": "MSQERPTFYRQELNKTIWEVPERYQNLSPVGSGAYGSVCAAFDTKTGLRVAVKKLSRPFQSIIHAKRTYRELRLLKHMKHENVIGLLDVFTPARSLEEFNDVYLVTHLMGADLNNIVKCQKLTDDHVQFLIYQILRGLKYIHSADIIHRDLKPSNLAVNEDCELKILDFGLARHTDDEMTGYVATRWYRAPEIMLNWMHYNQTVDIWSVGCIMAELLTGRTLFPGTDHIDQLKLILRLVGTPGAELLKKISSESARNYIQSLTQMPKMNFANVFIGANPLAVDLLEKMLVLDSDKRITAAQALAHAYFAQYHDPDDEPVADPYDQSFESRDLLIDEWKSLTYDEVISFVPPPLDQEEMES", "procedure,_shortened": "as §1"}}}
{"smiles": "Nc1cn2cc(-c3cnc4c(c3)N(C(=O)OC3CCCCC3)CCO4)ccc2n1", "note": "[Zharp1-163]", "values": [{"measurement": "inhibition at 1 µM", "setting": "CDK1/CycE1; replicate Data1", "result": 5.77, "unit": "%"}, {"measurement": "inhibition at 1 µM", "setting": "CDK1/CycE1; replicate Data2", "result": 6.95, "unit": "%"}, {"measurement": "inhibition at 1 µM", "setting": "CDK5/p35NCK; replicate Data1", "result": 7.89, "unit": "%"}, {"measurement": "inhibition at 1 µM", "setting": "CDK5/p35NCK; replicate Data2", "result": 1.25, "unit": "%"}, {"measurement": "inhibition at 1 µM", "setting": "CK1γ3; replicate Data1", "result": 14.1, "unit": "%"}, {"measurement": "inhibition at 1 µM", "setting": "CK1γ3; replicate Data2", "result": 20.6, "unit": "%"}, {"measurement": "inhibition at 1 µM", "setting": "DAPK1; replicate Data1", "result": 9.17, "unit": "%"}, {"measurement": "inhibition at 1 µM", "setting": "DAPK1; replicate Data2", "result": -5.62, "unit": "%"}, {"measurement": "inhibition at 1 µM", "setting": "HIPK1; replicate Data1", "result": 8.39, "unit": "%"}, {"measurement": "inhibition at 1 µM", "setting": "HIPK1; replicate Data2", "result": -1.36, "unit": "%"}, {"measurement": "inhibition at 1 µM", "setting": "JAK3; replicate Data1", "result": -1.37, "unit": "%"}, {"measurement": "inhibition at 1 µM", "setting": "JAK3; replicate Data2", "result": 7.33, "unit": "%"}, {"measurement": "inhibition at 1 µM", "setting": "LCK; replicate Data1", "result": -16.9, "unit": "%"}, {"measurement": "inhibition at 1 µM", "setting": "LCK; replicate Data2", "result": -10.8, "unit": "%"}, {"measurement": "inhibition at 1 µM", "setting": "MAP2K1; replicate Data1", "result": -8.67, "unit": "%"}, {"measurement": "inhibition at 1 µM", "setting": "MAP2K1; replicate Data2", "result": 0.16, "unit": "%"}, {"measurement": "inhibition at 1 µM", "setting": "MLK1; replicate Data1", "result": 21.2, "unit": "%"}, {"measurement": "inhibition at 1 µM", "setting": "MLK1; replicate Data2", "result": 32.7, "unit": "%"}, {"measurement": "inhibition at 1 µM", "setting": "PIM1; replicate Data1", "result": 3.88, "unit": "%"}, {"measurement": "inhibition at 1 µM", "setting": "PIM1; replicate Data2", "result": 7.34, "unit": "%"}, {"measurement": "inhibition at 1 µM", "setting": "SGK; replicate Data1", "result": 2.39, "unit": "%"}, {"measurement": "inhibition at 1 µM", "setting": "SGK; replicate Data2", "result": 0.81, "unit": "%"}, {"measurement": "inhibition at 1 µM", "setting": "TGFβR2; replicate Data1", "result": 7.99, "unit": "%"}, {"measurement": "inhibition at 1 µM", "setting": "TGFβR2; replicate Data2", "result": 3.92, "unit": "%"}, {"measurement": "inhibition at 1 µM", "setting": "TSSK1; replicate Data1", "result": -0.22, "unit": "%"}, {"measurement": "inhibition at 1 µM", "setting": "TSSK1; replicate Data2", "result": 2.05, "unit": "%"}, {"measurement": "inhibition at 1 µM", "setting": "p38α; replicate Data1", "result": 11.8, "unit": "%"}, {"measurement": "inhibition at 1 µM", "setting": "p38α; replicate Data2", "result": 9.57, "unit": "%"}]}
